Test [1] has as its system β3 -AR. It is filed as in vivo, mouse. Particulars: for stimulated oxygen consumption: β3 -AR-deficient male mice vs control. On the procedure: (§1) Mice that received norepinephrine were anesthetized with pentobarbital for the study.
(§2) Oxygen consumption was measured as described by Lowell et al. (supra) in twelve-week-old control, β3 -AR-deficient male mice, and β3 -AR-deficient knockout mice expressing the human β3-AR gene.

Test [2] deals with β3 -AR. The class given is biochemical, mouse. Particulars: for reduction of stimulatory effect on adenylate cyclase activity: β3 -AR-deficient vs wild type. Here is the method: (§3) To determine the functional consequences of β3 -AR deficiency on β-adrenergic signalling, the effects of β-adrenergic agonists on adenylate cyclase activity and lipolysis were assessed. For determination of adenylate cyclase activity (FIG. 5), plasma membranes were obtained from isolated white adipocytes or interscapular brown adipose tissue, and then were incubated in the presence of various agonists. […] To assess lipolysis (FIGS. 6A and 6B), white adipocytes were isolated from epididymal fat pads, and then incubated in the presence of various agonists. Rates of lipolysis were determined by quantitating the release of glycerol.

The subject of test [3] is β3 -AR. It is filed as in vivo, mouse. Particulars: for FFA: serum, fifteen minutes after injection. Here is the method: (§4) To determine the effect of β3 -AR deficiency on β-adrenergicsignaling in vivo, various adrenergic agonists were administered to control and knockout mice, and the effects on serum levels of FFAs, glycerol, and thermogenesis were assessed.
(§5) Whole blood was collected and analyzed for blood glucose levels (One Touch Blood Glucose Meter, Lifescan, Inc., Milpitas, Calif.). Serum was then isolated and assayed for FFAs (NEFA C kit, Wako Pure Chemical Industries, Ltd.), glycerol (GPO-Trinder Kit, procedure 337, Sigma), and insulin (rat insulin kit, Linco Research Inc., St. Louis, Mo.) according to the manufacturers' protocols.

Test [4] concerns isolated white adipocytes. Nature of the test: Lipolysis (glycerol release) in isolated white adipocytes. It is filed as cell-based, mouse. The following applies: +ADA. Here is the method:
as §3
For analysis of lipolysis, isolated white adipocytes (100 μl of a 10% isolate fat cell suspension) were incubated in a final volume of 500 μl, and glycerol release was measured over a fifteen minute period. […] Except where noted, the incubation medium consisted of a Krebs-Ringer-Hepes (30 mM) buffer (pH 7.4) supplemented with 2.5% bovine serum albumin (fraction V), 10 μM PIA (N^6 -[R-(-)-1-methyl-2-phenyl]adenosine), 1 unit/ml adenosine deaminase, and varying concentrations of agonists.

For the next test, the target named is T1, human β3 -AR (Homo sapiens, UniProt P13945).
T1 construct: reconstituted with an 80 kb β3 -AR human genomic clone; expressed in transfected cells; host or cells: transgenic beta-3-AR-deficient mice (human genomic P1 insert injected into zygotes; mRNA detected in brown adipose tissue only)
Nature of the test: O2 consumption in knockout mice expressing the reconstituted human β3 -AR. It is filed as in vivo, mouse. The following applies: 10 mg/ml. Here is the method: The effects on oxygen consumption were then assessed according to standard methods (e.g., those described herein).
as §2

In test [5] the target is T2, β3 -AR (Mus musculus, UniProt P25962). Nature of the test: Effect of a single dose on food intake. It is filed as in vivo. More on the design: endogenous in cells; host or cells: whole mice (control +/+ and beta-3-AR-deficient -/-, FVB background). The following applies: control mice; 1 mg/kg intraperitoneal; twenty-four hours. Here is the method: (§6) FIG. 9 is a graph showing the effect of a single dose of CL 316,243 on food intake. […] The mice were housed individually during the test period, and results for each group are the mean of five animals (±S.E.). Food intake was determined during the twenty-four hours following CL 316,243 or saline treatment.
(§7) To acclimate the mice to injections and handling, saline was injected daily for three days preceding day zero of the study. The mice were housed individually during the study. Food was weighed before injection and twenty-four hours after, and the differences were assumed to represent grams of food eaten per day. The cages were inspected for food spillage, and none was noted.

The test system of test [6] is β3 -AR. Nature of the test: Acute effect on plasma insulin and blood glucose. The following applies: β3 -AR-deficient mice; 1 mg/kg intraperitoneal. The class given is in vivo, mouse.
Description: (§8) FIGS. 8A-B are graphs showing the acute effect of saline or CL 316,243 on plasma insulin and blood glucose concentrations. […] Blood was obtained from the tail fifteen minutes after […]. The results are expressed as the mean ±S.E. (+/+=seven mice, -/-=four mice).
as §5

In test [7] the target is T2, β3 -AR. The class given is biochemical. More on the design: plasma membranes of isolated white adipocytes (epididymal) or interscapular brown adipose tissue; -/- mice are null control. The following applies: wild type mice; maximally effective / effective doses. Here is the method: as §3
In test [8] the target is T2, β3 -AR. The class given is in vivo. More on the design: endogenous in cells; host or cells: whole mice (control +/+ and beta-3-AR-deficient -/-, FVB background). Here is the method: as §4, §5
The test system of test [9] is β3 -AR. Nature of the test: Effect of a single dose on food intake. The class given is in vivo, mouse. Particulars: β3 -AR-deficient mice; 1 mg/kg intraperitoneal; twenty-four hours. Here is the method:
as §6, §7

Test [10] deals with T2, β3 -AR. Nature of the test: Acute effect on plasma insulin and blood glucose. It is filed as in vivo. Details: plasma membranes of isolated white adipocytes (epididymal) or interscapular brown adipose tissue; -/- mice are null control. The following applies: control mice; 1 mg/kg intraperitoneal, fifteen minutes.
Description: as §8, §5

Test [11] deals with T2, β3 -AR. It is filed as in vivo. Particulars: control mice; 1.0 mg/kg subcutaneously. More on the design: plasma membranes of isolated white adipocytes (epididymal) or interscapular brown adipose tissue; -/- mice are null control. On the procedure:
as §1, §2

Read-outs that look alike come from different tables or passages of the source.

T2 sequence (P25962 whole entry): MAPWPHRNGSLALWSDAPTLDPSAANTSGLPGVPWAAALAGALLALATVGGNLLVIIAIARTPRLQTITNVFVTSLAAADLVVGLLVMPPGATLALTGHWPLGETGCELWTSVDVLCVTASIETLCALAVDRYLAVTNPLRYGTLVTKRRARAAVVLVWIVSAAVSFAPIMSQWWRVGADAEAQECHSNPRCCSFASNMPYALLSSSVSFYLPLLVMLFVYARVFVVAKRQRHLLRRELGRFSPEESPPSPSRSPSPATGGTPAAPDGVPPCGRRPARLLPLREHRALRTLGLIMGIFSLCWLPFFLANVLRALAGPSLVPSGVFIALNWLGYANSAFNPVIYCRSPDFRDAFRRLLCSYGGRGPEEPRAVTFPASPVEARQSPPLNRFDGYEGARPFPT
T1 sequence (P13945 whole entry): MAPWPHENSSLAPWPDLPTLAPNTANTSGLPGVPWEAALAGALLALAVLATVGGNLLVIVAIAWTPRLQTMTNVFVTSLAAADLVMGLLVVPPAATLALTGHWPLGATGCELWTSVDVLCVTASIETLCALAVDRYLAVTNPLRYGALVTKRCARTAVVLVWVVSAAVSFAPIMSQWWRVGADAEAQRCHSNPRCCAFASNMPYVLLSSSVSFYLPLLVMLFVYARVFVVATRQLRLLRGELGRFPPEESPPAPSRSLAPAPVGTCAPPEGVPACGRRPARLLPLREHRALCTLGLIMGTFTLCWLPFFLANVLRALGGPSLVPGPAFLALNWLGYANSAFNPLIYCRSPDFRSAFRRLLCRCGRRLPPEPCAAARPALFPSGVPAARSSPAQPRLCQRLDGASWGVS

Consider `CC(C)NCC(O)c1ccc(O)c(O)c1` (stereo not shown) [isoproterenol], for which the stimulated oxygen consumption result in the test on β3 -AR [1] (0.3 mg/kg subcutaneously, awake) was “not significantly reduced”. The entries for the “reduction of stimulatory effect on adenylate cyclase activity” value in the test on β3 -AR [2] (membranes derived from brown adipose tissue) and with β3 -AR [2] (membranes derived from isolated white adipocytes) were “seventy” and “eighty”, respectively. The Glycerol with β3 -AR [3] (mouse, in vivo) amounted to 239 ± 15 µM. The same compound displayed an FFA with β3 -AR [3] (male -/-) of 1.510 ± 20 µM. Further, in [4] (wild type adipocytes, maximally effective concentration, +PIA), the stimulation of lipolysis entry is “about five”. Moreover, the “reduction of stimulated lipolysis” value in test [4] (β3 -AR-deficient adipocytes, -PIA) is reported as “about thirty-three”. Besides, in [4] (β3 -AR-deficient mice, +PIA), the lipolysis in adipocytes result is recorded as “absent”.

As to “Adrenocorticotropic hormone (SYSMEHFRWGKPVGKKRRPVKVYPNGAEDESAEAFPLEF; Corticotropin; UniProt P01189 138-176, looked up) [ACTH, hormone that stimulates lipolysis via a seven-transmembrane receptor Gαs -adenylate cyclase-coupled mechanism]”, the lipolysis in adipocytes entry was “increase lipolysis” in test [4] (wild type mice, +PIA) and “increase lipolysis” in test [4] (β3 -AR-deficient mice, +PIA).

As to `C[C@H](Cc1ccccc1)Nc1ncnc2c1ncn2[C@@H]1O[C@H](CO)[C@@H](O)[C@H]1O` [PIA, N^6-[R-(-)-1-methyl-2-phenyl]adenosine], the “inhibition of isoproterenol-stimulated lipolysis” value in [4] (control adipocytes, with vs without PIA (10 μM)) is reported as “only minimally inhibited”.

Take `NC[C@H](O)c1ccc(O)c(O)c1` [norepinephrine]: the stimulated oxygen consumption entry with β3 -AR [1] (0.6 mg/kg subcutaneously, anesthetized with pentobarbital) is reported as “not significantly reduced”.

With `C=C[C@@]1(C)CC(=O)[C@]2(O)[C@@]3(C)[C@@H](O)CCC(C)(C)[C@@H]3[C@H](O)[C@H](OC(C)=O)[C@@]2(C)O1` [forskolin], the lipolysis in adipocytes entry is on record as “stimulate lipolysis” in test [4] (wild type mice, +PIA) and “stimulate lipolysis” in [4] (β3 -AR-deficient mice, +PIA).

`CC(C)(C)NCC(O)COc1cccc2[nH]c(=O)[nH]c12` (stereo not shown) [CGP-12177]: the “increase in oxygen consumption” value on human β3 -AR is on record as “twenty”.

Take `C[C@H](Cc1ccc2c(c1)OC(C(=O)O)(C(=O)O)O2)NC[C@H](O)c1cccc(Cl)c1` [CL 316,243]: the “reduction in food intake” value on β3 -AR [5] is recorded as “forty-five”. For the same compound, the “effect on blood glucose” value with β3 -AR [6] is listed as “completely without effect”. Moreover, the “effect on plasma insulin levels” value with β3 -AR [6] is “completely without effect”. Moreover, the “increase in oxygen consumption” value with β3 -AR [1] (β3 -AR-deficient mice, 1.0 mg/kg subcutaneously) is reported as “totally absent”; on β3 -AR [11], 2 fold. The “adenylate cyclase activity in membranes” value is “stimulated” on β3 -AR [7] and “absent” in the test with β3 -AR [2] (β3 -AR-deficient mice, maximally effective doses). Besides, the “increase in serum FFA levels” value is 3.2 fold on β3 -AR [8] (control mice) and “totally absent” in the test on β3 -AR [3] (β3 -AR-deficient mice). For the same compound, the FFA was 2,260 ± 350 μM at β3 -AR [8] (serum, fifteen minutes after injection, female +/+) and 630 ± 140 µM with β3 -AR [3] (female -/-). The “effect on food intake” value with β3 -AR [9] is “completely ineffective”. For the same compound, at β3 -AR [10], the “increase in plasma insulin levels” value came to 140 fold. Further, the “reduction in blood glucose” value at β3 -AR [10] was “fifty-six”. Moreover, the lipolysis in adipocytes result in test [4] (wild type mice, +PIA) was “stimulated”; in [4] (β3 -AR-deficient mice, +PIA) it was “absent”.

(Values after patent US5789654A, “Transgenic animals deficient in endogenous β3 -adrenergic receptor and uses thereof” (Beth Israel Hospital Association, priority 1996, dated 1998).)
